Test results taken from patent publication US5158948A (Abbott Laboratories, priority 1991, dated 1992).
pIC50, pKi: −log10 of the molar value. Where a name gives a salt, the structure may show the parent alone. Read-outs that look alike come from different tables or passages of the source.

Key:
D-1 receptor = assay: D-1 antagonist activity in adenylate cyclase assay (antagonism of dopamine-induced increase in cAMP); type: biochemical; conditions: 10 μM dopamine; goldfish retina or rat striatum homogenate
Procedure: The functional activity of a compound was determined by assaying, in vitro, its ability to either stimulate the enzyme adenylate cyclase to produce more cAMP (agonist activity) or to antagonize a dopamine-induced increase in cAMP levels. The protocol for the adenylate cyclase assays was described by K. J. Watling and J. E. Dowling in J Neurochemistry, 1981, 36: 599 and by J. W. Kebabian, et al. in Proc Natl Acad Sci, USA, 1972, 69: 2145. In order to determine agonist activity, cell-free tissue homogenates are incubated in an ionic buffer solution containing ATP and the compound being evaluated. The tissue was obtained from either goldfish retina or rat striatum.
The Ki values were calculated as described by Y. C.

dopamine D-1 receptor [1] = target: T1, dopamine D-1 receptor (Rattus norvegicus, UniProt P18901); assay: D-1 receptor binding assay, competition with [^125 I]SCH-23982 in homogenized rat caudate
From the text: The compounds compete with the radiolabeled ligand for occupancy of the receptors and the molar potency of each compound was quantified.

dopamine D-2 receptor = target: T2, dopamine D-2 receptor (Rattus norvegicus, UniProt P61169); assay: D-2 receptor binding assay, competition with [^3 H]-spiperone in homogenized rat caudate; conditions: rat caudate homogenate
T2 construct: Homogenized rat caudate was the source of the D-2 receptors; from tissue; host or cells: rat caudate homogenate
Procedure: Homogenized rat caudate was the source of the D-2 receptors. […] A. Frey, T. E. Cote, C. […] The molar affinity of the compound for the receptor binding site was calculated by the same method used for the D-1 receptor assay, assuming a competitive interaction between the compound and the radiolabeled ligand.

dopamine D-1 receptor [2] = target: T1, dopamine D-1 receptor; assay: Rotation behavior: block of A-68930-induced rotation in rats with unilateral 6-hydroxydopamine lesion; type: in vivo; set-up: Homogenized rat caudate was incubated; from tissue; host or cells: rat caudate homogenate; conditions: subcutaneous, A-68930 1.0 μmol/kg s.c.
[3] = dose 10.0 μmol/kg, saline 1118 (Example 18), 1011 (Example 27)

T1 sequence (P18901 whole entry): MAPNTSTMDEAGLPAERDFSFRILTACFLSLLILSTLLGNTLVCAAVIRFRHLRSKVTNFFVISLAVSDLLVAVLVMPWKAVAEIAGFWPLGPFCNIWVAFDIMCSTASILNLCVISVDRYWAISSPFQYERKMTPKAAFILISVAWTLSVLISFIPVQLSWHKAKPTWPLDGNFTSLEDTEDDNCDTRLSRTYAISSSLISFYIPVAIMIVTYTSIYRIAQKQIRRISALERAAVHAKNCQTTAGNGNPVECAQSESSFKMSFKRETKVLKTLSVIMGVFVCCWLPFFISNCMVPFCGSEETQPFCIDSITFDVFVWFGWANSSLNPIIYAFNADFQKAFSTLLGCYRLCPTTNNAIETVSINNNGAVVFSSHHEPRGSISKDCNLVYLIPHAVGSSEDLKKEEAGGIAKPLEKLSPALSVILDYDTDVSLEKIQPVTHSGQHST
T2 sequence (P61169 whole entry): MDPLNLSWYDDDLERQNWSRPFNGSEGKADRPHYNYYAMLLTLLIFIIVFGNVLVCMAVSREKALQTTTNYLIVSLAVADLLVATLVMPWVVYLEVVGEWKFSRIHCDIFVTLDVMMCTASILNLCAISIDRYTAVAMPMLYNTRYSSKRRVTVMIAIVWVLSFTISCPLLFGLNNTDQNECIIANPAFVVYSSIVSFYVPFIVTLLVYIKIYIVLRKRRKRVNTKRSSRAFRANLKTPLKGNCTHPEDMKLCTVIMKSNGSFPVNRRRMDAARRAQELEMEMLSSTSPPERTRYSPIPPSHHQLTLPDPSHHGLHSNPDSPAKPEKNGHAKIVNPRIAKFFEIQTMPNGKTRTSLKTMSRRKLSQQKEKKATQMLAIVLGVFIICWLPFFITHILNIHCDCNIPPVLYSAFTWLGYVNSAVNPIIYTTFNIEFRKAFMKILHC

pIC50 (D-1 receptor)	pKi (D-1 receptor)	pKi (dopamine D-1 receptor [1])	pKi (dopamine D-2 receptor)	pKi (dopamine D-1 receptor [1]; read-out: D-1 Ki, rat caudate homogenate, [^125 I]SCH-23982)	Number of Rotations/2 h (dopamine D-1 receptor [2]; dose 3.2 μmol/kg, saline group 1118)	Number of Rotations/2 h (dopamine D-1 receptor [2]; [3])	Number of Rotations/2 h (dopamine D-1 receptor [2]; dose 32.0 μmol/kg, saline group 1118)	Number of Rotations/2 h (dopamine D-1 receptor [2]; dose 3.0 μmol/kg, saline group 1011)	Number of Rotations/2 h (dopamine D-1 receptor [2]; dose 30.0 μmol/kg, saline group 1011)	Compound
4.80	5.56	5.58	< 4.00							COc1cc2c(cc1O)C1(CCCc3ccccc31)CNCC2 (centres unmarked) [Example 9, 8-Hydroxy-7-methoxy-1-(spiro-1'-1',2',3',4'-tetrahydronaphthalene)-2,3,4,5-tetrahydro-1H-3-benzazepine hydrochloride]
6.49	7.22	7.30	3.25							COc1cc2c(cc1O)C1(CCCc3ccccc31)CN(C)CC2 (centres unmarked) [Example 10, 8-Hydroxy-7-methoxy-3-methyl-1-(spiro-1'-1',2',3',4'-tetrahydronaphthalene)-2,3,4,5-tetrahydro-1H-3-benzazepine hydrochloride]
6.64	7.40	6.96	5.17							CSc1cc2c(cc1O)C1(CCCc3ccccc31)CN(C)CC2 (centres unmarked) [Example 11, 8-Hydroxy-7-(methylthio)-3-methyl-1-(spiro-1'-1',2',3',4'-tetrahydronaphthalene)-2,3,4,5-tetrahydro-1H-3-benzazepine hydrochloride]
		4.80	< 4.00							Oc1ccc2c(c1)C1(CCc3ccccc31)CNCC2 (centres unmarked) [Example 13, 8-Hydroxy-1-(spiro-1'-indan)-2,3,4,5-tetrahydro-1H-3-benzazepine hydrobromide]
6.24	7.00	6.39	< 4.00							CN1CCc2ccc(O)cc2C2(CCc3ccccc32)C1 (centres unmarked) [Example 14, 8-Hydroxy-3-methyl-1-(spiro-1'-indan)-2,3,4,5-tetrahydro-1H-3-benzazepine hydrobromide]
			< 4.00	6.19						Oc1cc2c(cc1O)C1(CCc3ccccc31)CNCC2 (centres unmarked) [Example 15, 7.8-Dihydroxy-1-(spiro-1'-indan)-2,3,4,5-tetrahydro-1H-3-benzazepine hydrobromide]
6.29	7.05	6.48	5.26							CN1CCc2cc(O)c(O)cc2C2(CCc3ccccc32)C1 (centres unmarked) [Example 16, 7,8-Dihydroxy-3-methyl-1-(spiro-1'-indan)-2,3,4,5-tetrahydro-1H-3-benzazepine formate]
6.08	6.85	6.51	4.74							Oc1cc2c(cc1Br)CCNCC21CCc2ccccc21 (centres unmarked) [Example 17, 7-Bromo-8-hydroxy-1-(spiro-1'-indan)-2,3,4,5-tetrahydro-1H-2,3,4,5-tetrahydro-1H-3-benzazepine hydrochloride]
7.30	8.00	8.00	5.23		491 Rotations/2 h	412 Rotations/2 h	154 Rotations/2 h			CN1CCc2cc(Br)c(O)cc2C2(CCc3ccccc32)C1 (centres unmarked) [Example 18, 7-Bromo-8-hydroxy-3-methyl-1-(spiro-1'-indan)-2,3,4,5-tetrahydro-1H-3-benzazepine hydrochloride]
5.86	6.62	5.88	4.41							CN1CCc2cc([N+](=O)[O-])c(O)cc2C2(CCc3ccccc32)C1 (centres unmarked) [Example 21, 8-Hydroxy-7-nitro-3-methyl-1-(spiro-1'-indan)-2,3,4,5-tetrahydro-1H-3-benzazepine hydrochloride]
6.28	6.89	6.09	< 4.00							COc1cc2c(cc1O)C1(CCc3ccccc31)CNCC2 (centres unmarked) [Example 24, 8-Hydroxy-7-methoxy-1-(spiro-1'-indan)-2,3,4,5-tetrahydro-1H-3-benzazepine hydrochloride]
6.89	7.70	6.80	5.02							COc1cc2c(cc1O)C1(CCc3ccccc31)CN(C)CC2 (centres unmarked) [Example 25, 8-Hydroxy-7-methoxy-3-methyl-1-(spiro-1'-indan)-2,3,4,5-tetrahydro-1H-3-benzazepine hydrochloride]
		4.79	< 4.00							Oc1cc2c(cc1O)C1(CCCc3ccccc31)CNCC2 (centres unmarked) [Example 26, 7.8-Dihydroxy-1-(spiro-1'-1',2', 3',4'-tetrahydronapthalene)-2,3,4,5-tetrahydro-1H-3-benzazepine hydrobromide]
5.64	6.40	6.08	< 4.00			652 Rotations/2 h		913 Rotations/2 h	119 Rotations/2 h	CN1CCc2cc(O)c(O)cc2C2(CCCc3ccccc32)C1 (centres unmarked) [Example 27, 7,8-Dihydroxy-3-methyl-1-(spiro-1'-1',2',3',4'-tetrahydronapthalene)-2,3,4,5-tetrahydro-1H-3-benzazepine hydrobromide]
		4.64	3.87							Oc1ccc2c(c1)C1(CCCc3ccccc31)CNCC2 (centres unmarked) [Example 28, 8-Hydroxy-1-(spiro-1'-1',2',3',4'-tetrahydronapthalene)-2,3,4,5-tetrahydro-1H-3-benzazepine hydrochloride]
5.37	6.13	6.36	3.95							CN1CCc2ccc(O)cc2C2(CCCc3ccccc32)C1 (centres unmarked) [Example 29, 8-Hydroxy-3-methyl-1-(spiro-1'-1',2',3',4'-tetrahydronapthalene)-2,3,4,5-tetrahydro-1H-3-benzazepine hydrochloride]
6.04	6.80	6.17	4.84							Oc1cc2c(cc1Br)CCNCC21CCCc2ccccc21 (centres unmarked) [Example 30, 7-Bromo-8-hydroxy-1-(spiro-1'-1',2',3',4'-tetrahydronapthalene)-2,3,4,5-tetrahydro-1H-3-benzazepine hydrochloride]
6.85	7.70	7.52	5.00							CN1CCc2cc(Br)c(O)cc2C2(CCCc3ccccc32)C1 (centres unmarked) [Example 31, 7-Bromo-8-hydroxy-3-methyl-1-(spiro-1'-1',2',3',4'-tetrahydronapthalene)-2,3,4,5-tetrahydro-1H-3-benzazepine hydrochloride]
5.49	6.25	5.82	3.95							COc1cc2c(cc1O)C1(CCCCc3ccccc31)CN(C)CC2 (centres unmarked) [Example 32, 8-Hydroxy-7-methoxy-3-methyl-1-(spiro-5'-6',7',8',9'-tetrahydro-5'H-benzocycloheptene)-2,3,4,5-tetrahydro-1H-3-benzazepine hydrochloride]
		5.47	5.06							CN1CCc2ccc(O)cc2C2(CCCCc3ccccc32)C1 (centres unmarked) [Example 33, 8-Hydroxy-3-methyl-1-(spiro-5'-6',7',8',9'-tetrahydro-5'H-benzocycloheptene)-2,3,4,5-tetrahydro-1H-3-benzazepine hydrochloride]
		5.10	5.38							CN1CCc2cc(O)c(O)cc2C2(CCCCc3ccccc32)C1 (centres unmarked) [Example 34, 7.8-Dihydroxy-3-methyl-1-(spiro-5'-6',7',8',9'-tetrahydro-5'H-benzocycloheptene)-2,3,4,5-tetrahydro-1H-3-benzazepine hydrobromide]
		6.03	5.12							CN1CCc2cc(Br)c(O)cc2C2(CCCCc3ccccc32)C1 (centres unmarked) [Example 35, 7-Bromo-8-hydroxy-3-methyl-1-(spiro-5'-6',7',8',9'-tetrahydro-5'H-benzocycloheptene)-2,3,4,5-tetrahydro-1H-3-benzazepine hydrochloride]
6.02	6.77	6.80	6.18							COc1cc2c(cc1O)C1(CCOc3ccccc31)CN(C)CC2 (centres unmarked) [Example 135, 8-Hydroxy-7-methoxy-3-methyl-1-(spiro-4'-(3',4'-dihydro-2'H-1'-benzopyran))-2,3,4,5-tetrahydro-1H-3-benzazepine hydrochloride]
5.36	6.12	5.78	< 4.00							CN1CCc2ccc(O)cc2C2(CCOc3ccccc32)C1 (centres unmarked) [Example 136, 8-Hydroxy-3-methyl-1-(spiro-4'-(3',4'-dihydro-2'-H-1'-benzopyran))-2,3,4,5-tetrahydro-1H-3-benzazepine hydrochloride]
6.85	7.52	7.70	< 4.00							CN1CCc2cc(Br)c(O)cc2C2(CCOc3ccccc32)C1 (centres unmarked) [Example 137, 7-Bromo-8-hydroxy-3-methyl-1-(spiro-4'-(3',4'-dihydro-2'H-1'-benzopyran))-2,3,4,5-tetrahydro-1H-3-benzazepine hydrochloride]
